Test results from US10604554B2, “Double-acylated GLP-1 derivatives” (Novo Nordisk A/S, priority 2012, dated 2020).

Tested on: Landrace Yorkshire Duroc (LYD) pigs
Test: Pharmacodynamic (PD) study in pigs, food intake
Format: in vivo, pig
Settings: single s.c. dose 3.0 nmol/kg
Procedure: The purpose of this experiment was to investigate the effect of a couple of Example compounds on food intake in pigs. This was done in a pharmacodynamic (PD) study as described below, in which food intake was measured from 1 to 4 days after administration of a single dose of the GLP-1 derivative, as compared to a vehicle-treated control group.
Female Landrace Yorkshire Duroc (LYD) pigs, approximately 3 months of age, weighing approximately 30-35 kg were used (n=3-4 per group). The animals were housed in a group for approximately 1 week during acclimatisation to the animal facilities. During the experimental period the animals were placed in individual pens at least 2 days before dosing and during the entire experiment for measurement of individual food intake. The animals were fed ad libitum with pig fodder (Svinefoder Danish Top) at all times both during the acclimatisation and the experimental period. Food intake was monitored on line by logging the weight of fodder every 15 minutes. The system used was Mpigwin (Ellegaard Systems, Faaborg, Denmark).
The phosphate buffer serves as vehicle. Animals are dosed with a single subcutaneous dose of the GLP-1 derivative or vehicle (dose volume 0.025 ml/kg) on the morning of day 1, and food intake is measured for 1 day after dosing. On the last day of each study, 1-4 days after dosing, a blood sample for measurement of plasma exposure of the GLP-1 derivative is taken from the heart in anaesthetised animals. The animals are thereafter euthanised with an intra-cardial overdose of pentobarbitone.
Food intake is calculated as mean±SEM food intake in 24 h intervals (0-24 h, 24-48 h, and 48-72 h). In Table 6 below the food intake is indicated as percentage of the food intake of the vehicle group in the same time interval (dosage 3.0 nmol/kg).
Statistical comparisons of the food intake in the 24 h intervals in the vehicle vs. GLP-1 derivative group are done using two-way-ANOVA repeated measures, followed by Bonferroni post-test.

## CC[C@H](C)[C@H](NC(=O)[C@H](Cc1ccccc1)NC(=O)[C@H](CCC(=O)O)NC(=O)[C@H](CCCCNC(=O)[C@@H](N)CCCCNC(=O)COCCOCCNC(=O)COCCOCCNC(=O)CC[C@H](NC(=O)CCCCCCCCCCCCC(=O)O)C(=O)O)NC(=O)[C@H](C)NC(=O)[C@H](C)NC(=O)[C@H](CCC(N)=O)NC(=O)CNC(=O)[C@H](CCC(=O)O)NC(=O)[C@H](CC(C)C)NC(=O)[C@H](Cc1ccc(O)cc1)NC(=O)[C@H](CO)NC(=O)[C@H](CO)NC(=O)[C@@H](NC(=O)[C@H](CC(=O)O)NC(=O)[C@H](CO)NC(=O)[C@@H](NC(=O)[C@H](Cc1ccccc1)NC(=O)[C@@H](NC(=O)CNC(=O)[C@H](CCC(=O)O)NC(=O)C(C)(C)NC(=O)[C@@H](N)Cc1c[nH]cn1)[C@@H](C)O)[C@@H](C)O)C(C)C)C(=O)N[C@@H](C)C(=O)N[C@@H](Cc1c[nH]c2ccccc12)C(=O)N[C@@H](CC(C)C)C(=O)N[C@H](C(=O)N[C@@H](CCCNC(=N)N)C(=O)NCC(=O)N[C@@H](CCCNC(=N)N)C(=O)N[C@@H](CCCCNC(=O)[C@@H](N)CCCCNC(=O)COCCOCCNC(=O)COCCOCCNC(=O)CC[C@H](NC(=O)CCCCCCCCCCCCC(=O)O)C(=O)O)C(=O)O)C(C)C [Example 19, N^ε26-[(2S)-2-amino-6-[[2-[2-[2-[[2-[2-[2-[[(4S)-4-carboxy-4-(13-carboxytridecanoylamino)butanoyl]amino]ethoxy]ethoxy]acetyl]amino]ethoxy]ethoxy]acetyl]amino]hexanoyl], N^ε37-[(2S)-2-amino-6-[[2-[2-[2-[[2-[2-[2-[[(4S)-4-carboxy-4-(13-carboxytridecanoylamino)butanoyl]amino]ethoxy]ethoxy]acetyl]amino]ethoxy]ethoxy]acetyl]amino]hexanoyl]-[Aib^8,Arg^34,Lys^37]-GLP-1-(7-37)-peptide]
0-24 h
  PD in pig, food intake (% of vehicle) for hours 0-24: 52 % of vehicle
24-48 h
  PD in pig, food intake (% of vehicle) for hours 24-48: 64 % of vehicle
